Six compounds from publication PMC9544318, “Advanced Pyrrolidine‐Carbamate Self‐Immolative Spacer with Tertiary Amine Handle Induces Superfast Cyclative Drug Release” (Chemmedchem, 2022) can be followed below.

Holding throughout (format): physicochemical
Data set [1] can be described thus: Carbamate cleavage study of SI spacer-CPT modules (CPT release by HPLC). The conditions noted are these: for half-life at 1 mM: CPT release by HPLC, read-out: carbamate half-life (t1/2) (converted). From the text:
We undertook the structural optimization of the pyrrolidine‐carbamate SI spacer Sp2, aimed at decreasing the carbamate half‐life (t 1/2) for a faster hydroxy cargo release. The molecular structures of the synthesized SI spacers are reported in Figure 2 (all synthetic procedures are reported in the Supporting Information). Here, the Sp2 pyrrolidine ring was replaced by either a piperidine (in Sp4) or an isoxazolidine (in Sp5) cycle. In particular, Sp4 was designed to assess the impact of the cyclic amine ring size on the SI spacer degradation.[20] On the other hand, the use of an isoxazolidine ring in Sp5 aimed at evaluating the contribution of the “α‐effect” to the spacer reactivity.[21] While Sp4 was prepared starting from racemic 2‐piperidinecarbaldehyde, the synthesis of Sp5 was inspired by Bode's route to 5‐oxaproline.[22] Moreover, as we recently observed the inhibitory effects on the spacer cyclization given by a phosphate monoester group,[23] we devised the SI spacer modification with a basic handle. Since at physiological pH (approximately 7.4) the pyrrolidine is mostly present as protonated species, a second amine handle may force the pyrrolidine deprotonation, thus lowering its pK a value and increasing its nucleophilic character.[24] To this end, SI spacers Sp3 and Sp6/8 were endowed with a tertiary amine handle connected either at the carbamate N atom (in Sp3 and Sp7) or at the pyrrolidine ring (in Sp6 and Sp8). While the former spacers were rapidly obtained by reductive amination of Boc‐L‐prolinal, the latter were prepared by multistep synthesis, starting from oxygenated proline derivatives, such as 4‐oxo‐L‐proline and hydroxyproline. Firstly, the exocyclic secondary amine of SI spacers Sp3/8 was conjugated to the tertiary hydroxy group of the anticancer drug Camptothecin (CPT) via carbamate bond. As described recently,[19, 23] the final spacer‐drug modules Sp3/8‐CPT (Figure 2) were isolated as trifluoroacetate salts. These compounds were dissolved in a DMSO/phosphate buffer (pH 7.5) mixture and incubated at 37 °C, followed by aliquot collection at different time points and CPT release analysis by HPLC. The percentage of intact carbamate calculated from peak integrals was plotted versus time, and the spacer cyclization rates were estimated in terms of carbamate half‐life (t 1/2).
Carbamate Cleavage Studies
Experimental Procedure for Sp-CPT Modules
Stock solutions of lyophilized SI spacer-CPT modules (concentration: 10 mM in DMSO) were diluted 1:10 (final concentration: 1 mM) with 25 mM phosphate buffer (pH 7.4). Immediately after preparation, the mixtures were incubated at 37 °C. Aliquots were collected at different time points and diluted 1:4 (final concentration: 250 μ M) with a blocking buffer (8:2 H2O/CH3CN + 0.2% TFA).
The diluted aliquots were injected into an analytical HPLC-PDA system (see Materials and Methods), using the following parameters: […]
Gradient From 10% B to 50% B in 26 min.
Areas under the curve (AUC) of the detected peaks were measured using software associated to the HPLC systems. The rate of free OH release from the starting carbamate were obtained by calculating the relative ratios of AUC values corresponding to the amine -bearing prodrug and the free payload. Data were plotted versus time and half-lives (t1/2) were calculated by non -linear fitting (exponential, one-phase decay) using GraphPad Prism software .
(1 picture or pasted object on this page, not shown here)

The nature of data set [2]: CPT release under acidic conditions (acetate buffer, pH 5) mimicking the lysosomal compartment. The conditions noted are these: for carbamate stability under acidic conditions: compared with pH 7.5. How it is done:
[26] The release of free CPT was also studied upon Sp2-CPT and Sp3-CPT incubation under more acidic conditions (acetate buffer, pH 5), mimicking the lysosomal compartment.

Data set [3] is described as follows: Solubility observed in aqueous buffer/DMSO mixture of the release study. How it is done: [25] The stability of carbamate Sp4-CPT may be ascribed to a suboptimal conformation of the piperidine spacer compared to the native pyrrolidine. […] The stability of Sp5-CPT was also analysed in a phosphate buffer solution at pH 7.5, with DMSO content increased to 20 % DMSO.

Where [4] appears, read: DMSO/phosphate buffer (pH 7.5), 37 °C.

As for `CC[C@@]1(OC(=O)N(C)C[C@@H]2CCCN2)C(=O)OCc2c1cc1n(c2=O)Cc2cc3ccccc3nc2-1` [Sp2-CPT, reference compound], the half-life at 1 mM in data set [1] (setting [4]) was 3.6 h. Also, in data set [2], the “carbamate stability under acidic conditions” value is on record as “much more stable”.
`CC[C@@]1(OC(=O)N(CCN(C)C)C[C@@H]2CCCN2)C(=O)OCc2c1cc1n(c2=O)Cc2cc3ccccc3nc2-1` [Sp3-CPT]: in data set [1] (setting [4]), the “half-life compared with reference Sp2-CPT” value is given as “four times shorter” and the half-life at 1 mM is 0.9 h. Also, the “drug release activity under acidic conditions” value in data set [2] (compared with Sp2 reference) is reported as “consistently higher drug release activity than the Sp2 reference”. For the same compound, the “carbamate stability under acidic conditions” value in data set [2] is given as “much more stable”.
Consider `CC[C@@]1(OC(=O)N(C)C[C@@H]2CCON2)C(=O)OCc2c1cc1n(c2=O)Cc2cc3ccccc3nc2-1` [Sp5-CPT], for which the “cyclative carbamate cleavage (CPT release)” value in data set [1] (setting [4]) is listed as “complete inhibition of the cyclative carbamate cleavage”. Also, the CPT release result in data set [1] (phosphate buffer pH 7.5, 20 % DMSO) is “no CPT release was observed”. Moreover, the solubility result in data set [3] (9 : 1 aqueous buffer/DMSO mixture, pH 7.5) is on record as “partially insoluble”; in data set [3] (phosphate buffer pH 7.5, DMSO content increased to 20 %), “perfectly soluble”.
Consider `CC[C@@]1(OC(=O)N(C)C[C@@H]2C[C@H](N(C)C)CN2)C(=O)OCc2c1cc1n(c2=O)Cc2cc3ccccc3nc2-1` [Sp6-CPT], for which the half-life at 1 mM in data set [1] (setting [4]) was 5.5 h.
The same measure, in the same setting: next, `CC[C@@]1(OC(=O)N(CCCN(C)C)C[C@@H]2CCCN2)C(=O)OCc2c1cc1n(c2=O)Cc2cc3ccccc3nc2-1` [Sp7-CPT]: 3.3 h; `CC[C@@]1(OC(=O)N(C)C[C@@H]2C[C@@H](OCCN(C)C)CN2)C(=O)OCc2c1cc1n(c2=O)Cc2cc3ccccc3nc2-1` [Sp8-CPT]: 3.2 h.
